Measured values as given in patent US9592186B2, “Topical compositions and methods for skin lightening” (Avon Products, Inc., priority 2014, dated 2017).

Test system: Human epidermal melanocytes from dark-pigmented skin
Assay: Melanin absorbance (pigmentation) in cultured human epidermal melanocytes after 8 days of incubation
Assay type: cell-based
Conditions: for effect on pigmentation (in words): summary of Table 1; for % Pigmentation (percent change of melanin absorbance relative to vehicle control): 8 days incubation, absorption at 405 nm
Experimental: The Compound of Formula (II) was examined for its ability to reduce pigmentation in vitro in human melanocytes. Human epidermal melanocytes from dark-pigmented skin were seeded in 6-well dishes and grown using commercially available Medium 254, a sterile, liquid medium prepared with 200 μM calcium chloride for the culture of human epidermal melanocytes, supplemented with 1% Penicillin/Streptomycin and 1% Human Melanocyte Growth Supplement. Corresponding controls were maintained without histamine, Diphenylhydramine HCl and Compound II. Four replicates were tested for each combination. After 8 days of incubation, melanin was collected and processed by washing the wells with IX phosphate-buffered saline (PBS), followed by addition of 200 μL of 2M NaOH to three of the four replicates, which are then scraped, pooled and boiled at 80° C. for an hour. Melanin absorption was then measured at 405 nm using a spectrophotometer.
A larger (positive or negative) percent change indicates a larger increase or reduction in melanin.

SMILES | effect on pigmentation (in words) (at both concentrations tested (0.001% and 0.0001%)) | % Pigmentation (percent change of melanin absorbance relative to vehicle control) (concentration 0.0001%) [%] | % Pigmentation (percent change of melanin absorbance relative to vehicle control) (concentration 0.001%) [%] | effect on pigmentation (in words) (5 μM)
CC(=O)c1ccc(OCC(=O)NCC(c2ccco2)N2CCCCC2)cc1 (stereo not shown) [Compound (II)] | effective to reduce pigmentation | −10.40 | −40.83 | 
NCCc1c[nH]cn1 [Histamine, reference compound] |  |  |  | significant increase in pigmentation
